Measurements published in US20010051628A1, “METHODS TO MODULATE THE RESISTANCE OF CELLS TO APOPTOSIS MEDIATED BY MUTANT EPIDERMAL GROWTH FACTOR RECEPTORS” (priority 1998, published 2001).

Experiments:
[1] = test system: U87MG.ΔEGFR cells; test: In situ TUNEL labeling of apoptotic DNA fragmentation; assay type: cell-based, human
Method: Cells were seeded on cover slips, treated with 5 μg/ml of CDDP for 2 days, and then TUNEL assays were performed. The percent of TUNEL-positive cells induced by CDDP treatment was assessed by counting more than 400 cells per coverslip. □, U87MG; ▪, U87MG.ΔEGFR;_, U87MG.DK;_, U87MG.wtEGFR.
For each sample, 20 μg of lysate was used. […] For control, the vehicle (DMSO) was used. Apoptosis rate determined by TUNEL assays of triplicate cover slips.
Apoptotic cells were detected by use of terminal deoxynucleotidyl transferase mediated nick end labeling (TUNEL) of apoptotic DNA strand breaks as described (16). Apoptotic index was calculated as a ratio of apoptotic cell number to total tumor cell number within the areas by counting more than 400 cells in each coverslip.

[2] = test system: caspase-3-like proteases; test: Caspase activity assay in lysates of treated cells (Ac-DEVD-pNA substrate); assay type: cell-based, human; conditions: for CDDP-induced caspase activation on co-treatment with tyrphostin: data not shown; for caspase-3-like protease activity relative to basal activity: 48 hours after CDDP 5 μg/ml
Method: (§1) (A) Total cell lysates were prepared 2 days after treatment with 5 μg/ml CDDP. Samples were assayed for protease activity using the peptide substrate, Ac-DEVD-pNA. […] Cells were also treated with the plasma membrane-soluble caspase inhibitor Z-Asp-CH2DCB (200 μM) prior to and during CDDP treatment. □, U87MG; ▪, U87MG.ΔEGFR;_, U87MG.DK;_, U87MG.wtEGFR. […] (B) Proteolytic cleavage of PARP after CDDP treatment. For each sample, 20 μg total clarified protein lysate was loaded on to SDS-PAGE gels, electrophoresed, transferred to membranes and probed with anti-PARP monoclonal antibodies. FL, full-length; CF, cleaved fragment.
Cells were lysed in lysis buffer (ApoAlert, Clontech, Palo Alto, Calif.) for 15 min on ice, followed by centrifugation. Protease assays included 89 μl of reaction buffer (100 mM HEPES, pH 7.5, 20% v/v glycerol, 6 mM dithiothreitol, and 0.5 mM EDTA), I μl of 10 mM acetyl-Asp-Glu-Val-Asp-p-nitroanilide (Ac-DEVD-pNA) in DMSO (California Peptide Research, Inc., Napa, Calif.), and 10 μl of equal protein cell lysate. Samples were incubated at 37° C., and enzyme-catalyzed release of p-nitroanilide (pNA) was monitored at […] for 1 h in a microtiter plate reader (Molecular Devices Inc., Sunnyvale, Calif.). Aliquots of cell lysates diluted into the reaction buffer were first incubated with 10 μM caspase-3-like protease inhibitor, Ac-Asp-Glu-Val-Asp-aldehyde (Ac-DEVD-CHO) (Bachem, Torrance, Calif.), at 37° C. for 30 min. Values for picomoles of pNA released were calculated from those observed in OD405 values using a standard curve of pNA. One unit of protease activity was defined as the amount of enzyme required to release 1 pmol pNA/min at 37° C. For in vivo caspase inhibition studies, cells were cultured in the presence of peptide caspase inhibitor Z-Asp-CH2-DCB (Bachem).

[3] = test system: Bcl-XL; test: Western blot of Bcl-XL expression; assay type: cell-based, human
Method: Total cell lysates were prepared at the various time points indicated. For each sample, 20 μg of lysate protein was used. Results were reproduced in three independent experiments. […] For each sample, 20 μg of lysate was used. […] For control, the vehicle (DMSO) was used. Apoptosis rate determined by TUNEL assays of triplicate cover slips. […] Cell lysates were prepared in RIPA buffer (16), equal protein per sample was separated on SDS-polyacrylamide gels, and transferred to nitrocellulose membranes (BioRad, Hercules, Calif.). Proteins on the membranes were probed with antibodies to Bcl-XL (Transduction, Lexington, Ky.), poly(ADP-ribose) polymerase (PARP) (C2-10; […]

[4] = test system: PARP; test: Western blot of proteolytic cleavage of PARP; assay type: cell-based, human
Method: as §1
Cell lysates were prepared in RIPA buffer (16), equal protein per sample was separated on SDS-polyacrylamide gels, and transferred to nitrocellulose membranes (BioRad, Hercules, Calif.). Proteins on the membranes were probed with antibodies to Bcl-XL (Transduction, Lexington, Ky.), poly(ADP-ribose) polymerase (PARP) (C2-10; Enzyme System Products, Dublin, Calif.), EGFR (C13) (15), or phosphotyrosine (4G10, Upstate Biotechnology, Lake Placid, N.Y.), and detected by chemiluminescence (Amersham).

[5] = test system: U87MG.ΔEGFR cells; test: Cell survival (colony forming efficiency) assay; assay type: cell-based, human; conditions: drug 1 hr, then 10 to 12 days in fresh medium; colony count
Method: Western blot analysis of expression (lower) and auto-phosphorylation (upper) of wt EGFR (♦) and ΔEGFR (●) in U87MG, U87MG.ΔEGFR, U87MG.DK and U87MG.wtEGFR cells grown in media containing 10% serum. Low and similar levels of endogenous wt EGFR expression was also detected in U87MG, U87MG.ΔEGFR and U87MG.DK at longer exposures (data not shown). […] Cells were plated in triplicate 60-mm dishes and treated with media containing various concentrations of CDDP for 1 hr, followed by incubation with fresh media for 10 to 12 days. Numbers of colonies were counted after Giemsa staining. Results were reproduced in four independent experiments; bars, SID.
To determine the level of resistance of the cells to chemotherapeutic agents, colony forming efficiency assays were performed as described (20). Briefly, 400 or 700 cells were seeded in triplicate into dishes having a 60-mm diameter. On the next day cells were treated with various concentrations of CDDP for 1 hr or Taxol or vincristine for 2 hr, and then further incubated for 10 to 12 days in the fresh medium. The cells were fixed in methanol, stained with Giemsa solution (Sigma) and the number of colonies containing greater than 50 cells were counted. The survival fraction was calculated as the ratio of the colony-forming efficiency of drug-treated and untreated cells. […]

[6] = test system: protein kinase C (PKC); conditions: cited from earlier work
[7] = test system: human glioma cell lines A172, U563 or U251; conditions: cited from earlier work
[8] = test system: glioma; conditions: pre-treatment with LTC4; cited from earlier work
[9] = test system: glioma cell; conditions: cited from earlier work; for serum-driven cell growth: dose-dependent
[10] = test system: U-87 glioma xenografts; conditions: continuous intraperitoneal infusion; cited from earlier work
[11] = test system: malignant glioma cell lines; conditions: cited from earlier work
[12] = test system: human glioblastoma spheroids; conditions: cited from earlier work
[13] = test system: human glioblastoma cell lines; conditions: read-out: IC20 for monolayer growth inhibition; cited from earlier work
[14] = test system: EGFR; conditions: monolayers at the IC20 doses; cited from earlier work
[15] = test system: nitric oxide synthase (NOS); conditions: C6 glial cells; cited from earlier work
[16] = test system: tumors; conditions: EGF plus cisplatin versus cisplatin alone; cited from earlier work

With `COc1cc2ncnc(Nc3cccc(Cl)c3)c2cc1OC` [AG1478] as the compound, how does the “apoptosis induction, tyrphostin in combination with CDDP” value ([1]; U87MG.ΔEGFR cells, CDDP 5 μg/ml for 2 days, concentrations per FIG. 6B) read?
Its value is “significant apoptosis in a dose-dependent and synergistic manner”.

And the “CDDP-induced caspase activation on co-treatment with tyrphostin” value ([2]; U87MG.ΔEGFR cells)?
The value was “enhanced”.

What about the Bcl-XL expression ([3]; U87MG.ΔEGFR cells, 15 μM) of the same compound?
The Bcl-XL expression was “marked reduction”.

For `COc1cc2ncnc(Nc3cccc(Br)c3)c2cc1OC` [AG1517], which “CDDP-induced caspase activation on co-treatment with tyrphostin” value ([2]; U87MG.ΔEGFR cells) is on record?
The value was “enhanced”.

For `[NH2][Pt]([NH2])([Cl])[Cl]` [CDDP, cisplatin], which “proportion of TUNEL-positive cells, U87MG.ΔEGFR lower than U87MG, U87MG.DK or U87MG.wtEGFR” value ([1]; CDDP 5 μg/ml for 2 days, p<0.001) is on record?
The value was “more than 5 fold lower”.

And the “cleavage of 116-kDa full-length PARP into 85-kDa fragment” value ([4]; U87MG, U87MG.DK and U87MG.wtEGFR cells, 24 hr after CDDP)?
The value was “observed”.

What about the “cleavage of 116-kDa full-length PARP into 85-kDa fragment” value ([4]; U87MG.ΔEGFR cells, 48 hr after CDDP) of the same compound?
Its value is “trace levels”.

And the “caspase-3-like protease activity relative to basal activity” value ([2]; U87MG parental cells)?
The value was 5.3 fold.

And the “caspase-3-like protease activity relative to basal activity” value ([2]; U87MG.DK cells)?
The value was 4.7 fold.

What about the “caspase-3-like protease activity relative to basal activity” value ([2]; U87MG.wtEGFR cells) of the same compound?
The value was 6.4 fold.

And the “caspase-3-like protease activity relative to basal activity” value ([2]; U87MG.ΔEGFR cells)?
The value was 2.0 fold.

And the “Bcl-XL expression level during CDDP treatment” value ([3]; U87MG, U87MG.DK and U87MG.wtEGFR cells, continuous exposure for more than 24 hr)?
The value was “equally decreased”.

And the “Bcl-XL expression level during CDDP treatment” value ([3]; U87MG.ΔEGFR cells)?
Its value is “remained unchanged”.

What about the “IC50 value (survival) of U87MG.ΔEGFR cells relative to parental U87MG cells” value [5] of the same compound?
The value was 4.3 fold.

Which results are given for `CO[C@@H]1[C@H](N(C)C(=O)c2ccccc2)C[C@H]2O[C@]1(C)n1c3ccccc3c3c4c(c5c6ccccc6n2c5c31)C(=O)NC4` [CGP 41 251]?
PKC activity [6]: reduced; proliferation rate [7]: reduced

For `CCCCC/C=C\C\C=C/C=C/C=C/[C@@H](SC[C@H](NC(=O)CC[C@H](N)C(=O)O)C(=O)NCC(=O)O)[C@@H](O)CCCC(=O)O` [LTC4], which “survival of CDDP-treated animals” value [8] is on record?
The value was “increased survival to a statistically significant degree”.

For `COc1ccc(/C=C(\C#N)c2cccnc2)cc1OC` [RG 13022], which “EGF- and PDGF-induced DNA synthesis” value ([9]; 50 μmol/L) is on record?
The value was “completely blocked”.

And the “DNA synthesis induced by growth factors (EGF, PDGF; serum for the tyrphostins)” value [9]?
The value was “dose-dependently inhibit”.

What about the “cytotoxicity to the cells” value [9] of the same compound?
The value was “no cytotoxic side effects”.

What about the “selectivity in blocking either EGF or PDGF signaling” value [9] of the same compound?
Its value is “no selectivity”.

And the serum-driven cell growth [9]?
Its serum-driven cell growth is “inhibit”.

Which “DNA synthesis induced by growth factors (EGF, PDGF; serum for the tyrphostins)” value [9] does the source give for `N#CC(C#N)=Cc1cc(O)c(O)c(O)c1` [RG 50875] here?
Its value is “dose-dependently inhibit”.

What about the “cytotoxicity to the cells” value [9] of the same compound?
The value was “no cytotoxic side effects”.

And the “selectivity in blocking either EGF or PDGF signaling” value [9]?
The value was “no selectivity”.

And the serum-driven cell growth [9]?
The serum-driven cell growth was “inhibit”.

Which “activity against U-87 glioma xenografts” value [10] does the source give for `CN[C@@H]1C[C@H]2O[C@@](C)([C@@H]1OC)n1c3ccccc3c3c4c(c5c6ccccc6n2c5c31)C(=O)N[C@H]4O` [UCN-01, seven-hydroxystaurosporine] here?
The value was “significant activity”.

What about the “combination with 1,3-bis(2-chloroethyl)-1-nitrosourea, inhibition of glioma cell proliferation” value [11] of the same compound?
Its value is “additive effects”.

And the “combination with cisplatin, inhibition of glioma cell proliferation” value [11]?
Its value is “synergistic effects”.

Which “effect on CDDP-induced apoptosis” value ([1]; cells treated with CDDP in the presence of the inhibitor, data not shown) does the source give for `O=C(O)C[C@H](NC(=O)OCc1ccccc1)C(=O)COC(=O)c1c(Cl)cccc1Cl` [Z-Asp-CH2-DCB] here?
Its value is “significant inhibition”.

What about the “caspase-3-like protease activity of cells treated with CDDP in the presence of the inhibitor” value ([2]; 200 μM prior to and during CDDP treatment, U87MG and sublines) of the same compound?
The value was “did not exhibit an increase”.

What does the source list for `O=c1c(-c2ccc(O)cc2)coc2cc(O)cc(O)c12` [genistein]?
infiltration ([12]; genistein at 10 μmol/L): completely inhibited; PKC activity [6]: dose dependently reduced; IC20 [13]: 10 µM; DNA synthesis induced by growth factors (EGF, PDGF; serum for the tyrphostins) [9]: inhibited; cytotoxicity to the cells [9]: cytotoxic; proliferation rate [7]: inhibited; EGFR-associated tyrosine phosphorylation [14]: no change

With `CO[C@H]1[C@@H](OC)C[C@H](C)[C@@H](OC)C2=CC(=O)C=C(NC(=O)/C(C)=C/C=C\[C@H](OC)[C@@H](OC(N)=O)/C(C)=C/[C@@H]1C)C2=O` [herbimycin A] as the compound, how does the “NOS induced by LPS and IFN-gamma” value [15] read?
Its value is “suppressed”.

With `N#CC(C#N)=Cc1cc(O)c(O)c(O)c1` [tyrphostin A25] as the compound, how does the invasion ([12]; tyrphostin A25 at 3 μmol/L, third cell line) read?
The invasion was “reduced invasion”.

And the IC20 [13]?
Its IC20 is 3 µM.

What about the EGFR-associated tyrosine phosphorylation [14] of the same compound?
Its EGFR-associated tyrosine phosphorylation is “no change”.

With “EGF: epidermal growth factor administered with cisplatin (NSDSECPLSHDGYCLHDGVCMYIEALDKYACNCVVGYIGERCQYRDLKWWELR; Epidermal growth factor; UniProt P01133 971-1023, looked up)” as the compound, how does the “cisplatin-induced tumor cell kill (final tumor volume)” value [16] read?
The value was “significantly enhance”.
